Test results taken from patent US6737383B1, “Herbicidal oxadiazolidines” (priority 1999, dated 2004).

How the values were obtained:
blackgrass = test: Test B pre/postemergence blackgrass; format: in vivo, Alopecurus myosuroides
How it was run: (§1)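 Test chemicals in a non-phytotoxic solvent mixture with surfactant were sprayed preemergence onto planted seeds and postemergence onto plants 2 to 18 cm tall (1- to 4-leaf stage). After twelve to sixteen days in a greenhouse, injury was visually rated against untreated controls from 0 (no effect) to 10 (complete control).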

cocklebur = test: Test B pre/postemergence cocklebur; format: in vivo, Xanthium strumarium
How it was run: as §1

crabgrass = test: Test B pre/postemergence crabgrass; format: in vivo, Digitaria sanguinalis
How it was run: as §1

wild oat = test: Test B pre/postemergence wild oat; format: in vivo, Avena fatua
How it was run: as §1

pigweed = test: Test B pre/postemergence pigweed; format: in vivo, Amaranthus retroflexus
How it was run: as §1

soybean = test: Test B pre/postemergence soybean; format: in vivo, Glycine max
How it was run: as §1

rape = test: Test B pre/postemergence rape; format: in vivo, Brassica napus
How it was run: as §1

surinam grass = test: Test B pre/postemergence surinam grass; format: in vivo, Brachiaria decumbens
How it was run: as §1

bamyardgrass = test: Test B flood test barnyardgrass; format: in vivo, Echinochloa crus-galli
How it was run: (§2)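 Each value is a visual injury score relative to controls, with 10 meaning complete control and 0 no effect. Evaluation took place twelve to sixteen days after the 2-leaf-stage plants were treated and kept in the greenhouse.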

sugar beet = test: Test B pre/postemergence sugar beet; format: in vivo, Beta vulgaris
How it was run: as §1

wheat = test: Test B pre/postemergence wheat; format: in vivo, Triticum aestivum
How it was run: as §1

corn = test: Test B pre/postemergence corn; format: in vivo, Zea mays
How it was run: as §1

velvetleaf = test: Test B pre/postemergence velvetleaf; format: in vivo, Abutilon theophrasti
How it was run: as §1

bedstraw = test: Test B pre/postemergence bedstraw; format: in vivo, Galium aparine; conditions: Postemergence; for Plant response rating, Bedstraw: scale 0 to 10, 0 is no effect, 10 is complete control; for Bedstraw plant response rating: scale of 0 to 10 where 0 is no effect and 10 is complete control
How it was run: as §1

smallflower flatsedge = test: Test B flood test smallflower flatsedge; format: in vivo, Cyperus difformis
How it was run: as §2

purple nutsedge = test: Test B pre/postemergence purple nutsedge; format: in vivo, Cyperus rotundus
How it was run: as §1

[1] = Postemergence, Rate 125 g/ha, scale 0 to 10, 0 is no effect, 10 is complete control
[2] = Postemergence, Rate 250 g/ha, scale 0 to 10, 0 is no effect, 10 is complete control
[3] = Postemergence, Rate 500 g/ha, scale of 0 to 10 where 0 is no effect and 10 is complete control
[4] = Preemergence, Rate 62 g/ha, scale 0 to 10 (0 no effect, 10 complete control)
[5] = Preemergence, Rate 125 g/ha, scale of 0 to 10 where 0 is no effect and 10 is complete control
[6] = Preemergence, Rate 250 g/ha, scale of 0 to 10 where 0 is no effect and 10 is complete control
[7] = Preemergence, Rate 500 g/ha, scale 0 to 10, 0 is no effect, 10 is complete control
[8] = Rate 62 g/ha, Postemergence, scale of 0 to 10 where 0 is no effect and 10 is complete control
[9] = Preemergence, Rate 250 g/ha, scale 0 to 10, 0 is no effect, 10 is complete control
[10] = Rate 62 g/ha, flood test species, Pre-emergence, visual evaluation after twelve to sixteen days
[11] = Rate 125 g/ha, under heading Pre-emergence, flood test species, visual evaluation after twelve to sixteen days
[12] = Rate 250 g/ha, Pre-emergence, flood-test species, scale 0 to 10, 0 is no effect, 10 is complete control
[13] = Rate 500 g/ha, Pre-emergence, flood test species, scale 0 to 10 (0 no effect, 10 complete control)

CC(C)N(C(=O)n1oc(=O)n(C(C)CCl)c1=O)c1ccc(F)cc1F (stereo not shown) [Compound 408]
Plant response rating, Blackgrass (blackgrass; [1]): 2
Plant response rating, Blackgrass (blackgrass; [2]): 9
Blackgrass plant response rating (blackgrass; [3]): 10
Plant response rating, Blackgrass (blackgrass; [4]): 6
Plant response rating, Blackgrass (blackgrass; [5]): 9
Blackgrass plant response rating (blackgrass; [6]): 9
Blackgrass plant response rating (blackgrass; [7]): 10
Blackgrass plant response rating (blackgrass; [8]): 0
Plant response rating, Cocklebur (cocklebur; [1]): 0
Plant response rating, Cocklebur (cocklebur; [2]): 0
Cocklebur plant response rating (cocklebur; [3]): 3
Plant response rating, Cocklebur (cocklebur; [4]): 0
Plant response rating, Cocklebur (cocklebur; [5]): 0
Cocklebur plant response rating (cocklebur; [9]): 0
Cocklebur plant response rating (cocklebur; [7]): 0
Cocklebur plant response rating (cocklebur; [8]): 0
Plant response rating, Crabgrass (crabgrass; [1]): 4
Plant response rating, Crabgrass (crabgrass; [2]): 8
Crabgrass plant response rating (crabgrass; [3]): 9
Plant response rating, Crabgrass (crabgrass; [4]): 9
Plant response rating, Crabgrass (crabgrass; [5]): 10
Crabgrass plant response rating (crabgrass; [9]): 10
Crabgrass plant response rating (crabgrass; [7]): 10
Crabgrass plant response rating (crabgrass; [8]): 3
Wild oats plant response rating (wild oat; [3]): 3
Plant response rating, Wild oats (wild oat; [4]): 0
Plant response rating, Wild oats (wild oat; [5]): 2
Wild oats plant response rating (wild oat; [9]): 5
Wild oats plant response rating (wild oat; [7]): 8
Plant response rating, Redroot pigweed (pigweed; [2]): 0
Redroot pigweed plant response rating (pigweed; [3]): 7
Plant response rating, Redroot pigweed (pigweed; [4]): 4
Plant response rating, Redroot pigweed (pigweed; [5]): 6
Redroot pigweed plant response rating (pigweed; [9]): 10
Redroot pigweed plant response rating (pigweed; [7]): 10
Plant response rating, Soybean (soybean; [2]): 3
Soybean plant response rating (soybean; [3]): 4
Plant response rating, Soybean (soybean; [4]): 0
Plant response rating, Soybean (soybean; [5]): 0
Soybean plant response rating (soybean; [9]): 0
Soybean plant response rating (soybean; [7]): 0
Rape plant response rating (rape; [3]): 2
Plant response rating, Rape (rape; [4]): 0
Plant response rating, Rape (rape; [5]): 0
Rape plant response rating (rape; [9]): 6
Rape plant response rating (rape; [7]): 8
Plant response rating, B. signalgrass (surinam grass; [1]): 0
Plant response rating, B. signalgrass (surinam grass; [2]): 0
B. signalgrass plant response rating (surinam grass; [3]): 5
Plant response rating, B. signalgrass (surinam grass; [4]): 0
Plant response rating, B. signalgrass (surinam grass; [5]): 2
B. signalgrass plant response rating (surinam grass; [6]): 4
B. signalgrass plant response rating (surinam grass; Preemergence, Rate 500 g/ha, scale of 0 to 10 where 0 is no effect and 10 is complete control): 7
B. signalgrass plant response rating (surinam grass; [8]): 0
Plant response rating, Barnyardgrass (0 to 10 scale, 0 is no effect, 10 is complete control) (bamyardgrass; [10]): 0
Barnyardgrass plant response rating (0 to 10 scale, 0 is no effect, 10 is complete control) (bamyardgrass; [11]): 0
Barnyardgrass plant response rating (bamyardgrass; [12]): 0
Barnyardgrass plant response rating (bamyardgrass; [13]): 0
Plant response rating, Sugarbeets (sugar beet; [2]): 0
Sugarbeets plant response rating (sugar beet; [3]): 6
Plant response rating, Sugarbeets (sugar beet; [4]): 2
Plant response rating, Sugarbeets (sugar beet; [5]): 4
Sugarbeets plant response rating (sugar beet; [9]): 8
Sugarbeets plant response rating (sugar beet; [7]): 8
Wheat plant response rating (wheat; [3]): 2
Plant response rating, Wheat (wheat; [4]): 0
Plant response rating, Wheat (wheat; [5]): 0
Wheat plant response rating (wheat; [9]): 4
Wheat plant response rating (wheat; [7]): 7
Plant response rating, Corn (corn; [1]): 0
Plant response rating, Corn (corn; [2]): 0
Corn plant response rating (corn; [3]): 0
Plant response rating, Corn (corn; [4]): 0
Plant response rating, Corn (corn; [5]): 2
Corn plant response rating (corn; [9]): 4
Corn plant response rating (corn; [7]): 8
Corn plant response rating (corn; [8]): 0
Plant response rating, Velvetleaf (velvetleaf; [2]): 0
Velvetleaf plant response rating (velvetleaf; [3]): 4
Plant response rating, Velvetleaf (velvetleaf; [4]): 0
Plant response rating, Velvetleaf (velvetleaf; [5]): 1
Velvetleaf plant response rating (velvetleaf; [9]): 7
Velvetleaf plant response rating (velvetleaf; [7]): 7
Plant response rating, Bedstraw (bedstraw; Rate 125 g/ha): 6
Plant response rating, Bedstraw (bedstraw; Rate 250 g/ha): 8
Bedstraw plant response rating (bedstraw; Rate 500 g/ha): 9
Bedstraw plant response rating (bedstraw; Rate 62 g/ha): 6
Plant response rating, S. Flatsedge (0 to 10 scale, 0 is no effect, 10 is complete control) (smallflower flatsedge; [10]): 0
S. Flatsedge plant response rating (0 to 10 scale, 0 is no effect, 10 is complete control) (smallflower flatsedge; [11]): 0
S. Flatsedge plant response rating (smallflower flatsedge; [12]): 0
S. Flatsedge plant response rating (smallflower flatsedge; [13]): 0
Plant response rating, Nutsedge (purple nutsedge; [2]): 2
Nutsedge plant response rating (purple nutsedge; [3]): 3
Plant response rating, Nutsedge (purple nutsedge; [4]): 0
Plant response rating, Nutsedge (purple nutsedge; [5]): 0
Nutsedge plant response rating (purple nutsedge; [9]): 0
Nutsedge plant response rating (purple nutsedge; [7]): 0
